Like-named read-outs stand apart in the source and are kept apart here.
Experiments:
[1] = tested on: σ^E-dependent rpoE P1::lacZ reporter (σ^E activity); experiment: Differential rate of β-galactosidase synthesis from the σ^E-dependent rpoE P1::lacZ reporter fusion; format: cell-based, Rhodobacter sphaeroides; settings: for Rate (differential rate of β-galactosidase synthesis from the σ^E-dependent rpoE::lacZ fusion): WT cells, Aero (30% O2)
Description: Bacterial strains and plasmids: R. sphaeroides 2.4.1 (wild-type, WT), R. sphaeroides with a mutant ChrR (ΔChrR) (chrR-1::drf; see Newman et al., supra.) or R. sphaeroides with both a mutant σ^E (Δσ^E) and ΔChrR (TF18; rpoEchrR-1::drf, see Schilke B & Donohue T, “ChrR positively regulates transcription of the Rhodobacter sphaeroides cytochrome c2 gene,” J. Bacteriol. 177:1929-1937 (1995), incorporated herein by reference as if set forth in its entirety) were grown at 30° C. in Sistrom's succinate-based minimal medium A. Media used for growth of strains containing low-copy lacZ reporter plasmids was supplemented with 25 μg/ml kanamycin.
Growth conditions: For aerobic respiratory growth, 500 ml of media was bubbled with a mixture of 69% N2, 30% O2 and 1% CO2 in the dark. Conversely, for photosynthetic growth, 500 ml of media was bubbled with a mixture of 95% N2 and 5% CO2 in front of an incandescent light source (10 W/m^2 as measured with a Yellow-Springs-Kettering model 6.5A radiometer through a Corning […] filter).
(§1) To test the effects of ^1O2, photosynthetic cultures were exposed to aerobic growth conditions (69% N2, 30% O2 and 1% CO2) in the presence or in the absence of light (10 W/m^2). Where indicated, light was passed through a 1283 filter (Kopp Glass; Pittsburgh, Pa.) that impedes >99% of light at wavelengths <770 nm, but transmits >45% of light at 830 nm and >80% of light at 900 nm. When using methylene blue (Sigma-Aldrich; St. Louis, Mo.) to generate ^1O2, a final concentration of 1 μM was added to aerobic cultures in the presence or in the absence of incandescent light (10 W/m^2). To test the effects of other ROS, 0.5 mM H2O2, 1 mM diamide or 1 mM paraquat (Sigma-Aldrich) was added to aerobic cultures.
Determining promoter activity: Promoter activity was determined by measuring β-galactosidase activity from a low copy rpoE P1::lacZ reporter plasmid or a trxA::lacZ reporter plasmid. The promoter for the thioredoxin gene (trxA, −214 to +27 relative to the known transcription initiation site) was fused to lacZ and mobilized into R. sphaeroides.
β-galactosidase activity (units/ml of culture) was calculated as follows: (A420×1000)/(Cell volume in assay (ml)×Time of assay (min)). Culture density was typically monitored by measuring A600 in a BioSpec 1601 spectrophotometer (Schimatzu; Columbia, Md.). The density of cultures treated with methylene blue was monitored at 500 nm because methylene blue absorbs light between 609-668 nm. The differential rate of β-galactosidase synthesis was determined by calculating the slope from plots of enzyme activity (units/ml of culture) against optical density. All experiments were repeated a minimum of three times with differential rates of β-galactosidase synthesis typically deviating less than two-fold between experiments.

[2] = tested on: σ^E-dependent rpoE P1::lacZ reporter (σ^E activity); settings: cited from earlier work
[3] = tested on: trxA::lacZ reporter (trx promoter); format: cell-based, Rhodobacter sphaeroides
Description: To test the effects of ^1O2, photosynthetic cultures were exposed to aerobic growth conditions (69% N2, 30% O2 and 1% CO2) in the presence or in the absence of light (10 W/m^2). Where indicated, light was passed through a 1283 filter (Kopp Glass; Pittsburgh, Pa.) that impedes >99% of light at wavelengths <770 nm, but transmits >45% of light at 830 nm and >80% of light at 900 nm. When using methylene blue (Sigma-Aldrich; St. Louis, Mo.) to generate ^1O2, a final concentration of 1 μM was added to aerobic cultures in the presence or in the absence of incandescent light (10 W/m^2). […]
Determining promoter activity: Promoter activity was determined by measuring β-galactosidase activity from a low copy rpoE P1::lacZ reporter plasmid or a trxA::lacZ reporter plasmid. […]
β-galactosidase activity (units/ml of culture) was calculated as follows: (A420×1000)/(Cell volume in assay (ml)×Time of assay (min)). Culture density was typically monitored by measuring A600 in a BioSpec 1601 spectrophotometer (Schimatzu; Columbia, Md.). The density of cultures treated with methylene blue was monitored at 500 nm because methylene blue absorbs light between 609-668 nm. The differential rate of β-galactosidase synthesis was determined by calculating the slope from plots of enzyme activity (units/ml of culture) against optical density. […]

[4] = tested on: R. sphaeroides Δσ^E mutant; experiment: Growth and viability of aerobically grown cells treated with methylene blue in the presence of light; format: cell-based, Rhodobacter sphaeroides; settings: methylene blue + light (1O2), FIG. 3
Description: as §1
All experiments were initiated when cultures reached ˜2×10^8 cfu/ml to minimize light or O2 limitation to photosynthetic and aerobic cells, respectively. To measure cell viability, samples were removed, diluted and plated in media supplemented with 25 μg/ml kanamycin to select for the rpoE P1::lacZ reporter plasmid. The whole cell abundance of carotenoids was measured as described in Cohen-Bazire G, et al., “Kinetic studies of pigment synthesis by non-sulfur purple bacteria,” J. Cell Physiol. 49:25-68 (1957). […]

[5] = WT cells grown aerobically, 0.5 mM H2O2, 1 mM diamide or 1 mM paraquat, untreated = 11

In the case of `CN(C)C(=O)/N=N/C(=O)N(C)C` [Diamide, diamide], the “rpoE P1::lacZ fusion (differential rate of β-galactosidase synthesis)” value [1, 5] is listed as 3 and the “σ^E activity upon exposure to the compound (previous work)” value [2] is listed as “does not increase”.
With `OO` [H2O2, hydrogen peroxide] the “Change of differential rate of β-galactosidase synthesis from the σ^E-dependent reporter fusion compared to untreated cells” value [1] was “no more than 1.2 fold”, the “rpoE P1::lacZ fusion (differential rate of β-galactosidase synthesis)” value [1] was 13 and the “trxA::lacZ fusion (differential rate of β-galactosidase synthesis)” value [3] was 220.
For `C[n+]1ccc(-c2cc[n+](C)cc2)cc1` [Paraquat, paraquat], the “rpoE P1::lacZ fusion (differential rate of β-galactosidase synthesis)” value [1, 5] was 6, the “Change of differential rate of β-galactosidase synthesis from the σ^E-dependent reporter fusion compared to untreated cells” value ([1]; aerobic WT cells, 0.5 mM H2O2 or 1 mM paraquat) was “decreased” and the “trxA::lacZ fusion (differential rate of β-galactosidase synthesis)” value ([3]; WT cells grown aerobically, 0.5 mM H2O2 or 1 mM paraquat, untreated = 185) was 450.
With `CN(C)c1ccc2nc3ccc(=[N+](C)C)cc-3sc2c1` [methylene blue] the “Increase of differential rate of β-galactosidase synthesis from rpoE P1::lacZ compared to aerobic cells grown without methylene blue” value ([1]; WT aerobic cells, 1 μM methylene blue, light and O2) was ~20 fold, the “Increase of rate of β-galactosidase synthesis from rpoE P1::lacZ” value ([1]; WT aerobic cultures, methylene blue in the dark) was “two-fold” and the “Rate (differential rate of β-galactosidase synthesis from the σ^E-dependent rpoE::lacZ fusion)” value ([1]; 1 μM methylene blue + light (generates 1O2)) was 151. For the same compound, the “Rate (differential rate of β-galactosidase synthesis from the σ^E-dependent rpoE::lacZ fusion)” value ([1]; 1 μM methylene blue, dark (no 1O2)) was 8 and the “Effect on Δσ^E mutant when carotenoids are low (OD500nm, cfu/ml)” value [4] was “bacteriocidal”.

— US8003390B2, “Responses to singlet oxygen” (Wisconsin Alumni Research Foundation, priority 2005, dated 2011)
